# Laboratory results taken from article PMC5218480 (PLoS ONE, 2017).
# System: MV-4-11 cells
# Assay: Gene expression microarray analysis (Affymetrix PrimeView) and GSEA
# Format: cell-based, human
# Parameters: RFU PODN (11730768_x_at) / Fold change /veh PODN (11730768_x_at) / RFU LINC00158 (11744669_a_at) / Fold change /veh LINC00158 (11744669_a_at) / RFU DUSP10 (11751237_a_at) / Fold change /veh DUSP10 (11751237_a_at) / RFU ID3 (11757404_x_at) / Fold change /veh ID3 (11757404_x_at) / RFU PLEKHG5 (11737974_s_at) / Fold change /veh PLEKHG5 (11737974_s_at) / RFU LRRC4B (11730491_at) / Fold change /veh LRRC4B (11730491_at) / RFU GIMAP4 (11747438_a_at) / Fold change /veh GIMAP4 (11747438_a_at) / RFU KRT8 (11758183_x_at) / Fold change /veh KRT8 (11758183_x_at) / RFU CNN1 (11734310_a_at) / Fold change /veh CNN1 (11734310_a_at) / RFU VPS37D (11726825_at) / Fold change /veh VPS37D (11726825_at) / RFU C10orf10 (11716522_x_at) / Fold change /veh C10orf10 (11716522_x_at) / RFU KIR2DL2 /// KIR2DL4 /// KIR2DL5A /// KIR2DL5B /// KIR2DS1 /// KIR2DS2 /// KIR2DS3 /// KIR2DS4 /// KIR3DL3 /// KIR3DL3 /// KIR3DS1 (11738374_at) / Fold change /veh KIR2DL2 /// KIR2DL4 /// KIR2DL5A /// KIR2DL5B /// KIR2DS1 /// KIR2DS2 /// KIR2DS3 /// KIR2DS4 /// KIR3DL3 /// KIR3DL3 /// KIR3DS1 (11738374_at) / RFU C1QL1 (11718748_at) / Fold change /veh C1QL1 (11718748_at) / RFU TMPRSS4 (11747572_a_at) / Fold change /veh TMPRSS4 (11747572_a_at) / RFU HAMP (11756126_x_at) / Fold change /veh HAMP (11756126_x_at) / RFU RNFT2 (11725882_a_at) / Fold change /veh RNFT2 (11725882_a_at) / RFU NR4A2 (11747474_a_at) / Fold change /veh NR4A2 (11747474_a_at) / RFU ABCC12 (11746883_a_at) / Fold change /veh ABCC12 (11746883_a_at) / RFU TMEM136 (11760407_x_at) / Fold change /veh TMEM136 (11760407_x_at) / RFU CLDN22 /// WWC2 (11732394_at) / Fold change /veh CLDN22 /// WWC2 (11732394_at) / RFU HLA-DPB1 (11760878_x_at) / Fold change /veh HLA-DPB1 (11760878_x_at) / RFU SPINT1 (11716480_a_at) / Fold change /veh SPINT1 (11716480_a_at) / RFU GAP43 (11754022_s_at) / Fold change /veh GAP43 (11754022_s_at) / RFU A4GNT (11735810_at) / Fold change /veh A4GNT (11735810_at) / RFU PRB3 (11715151_x_at) / Fold change /veh PRB3 (11715151_x_at) / RFU TUBB4B (11761932_at) / Fold change /veh TUBB4B (11761932_at) / RFU CAPN14 (11732068_a_at) / Fold change /veh CAPN14 (11732068_a_at) / RFU TMCC2 (11721928_a_at) / Fold change /veh TMCC2 (11721928_a_at) / RFU IRGQ (11745062_a_at) / Fold change /veh IRGQ (11745062_a_at) / RFU FAM174B (11720279_a_at) / Fold change /veh FAM174B (11720279_a_at) / RFU TMPRSS4 (11748680_a_at) / Fold change /veh TMPRSS4 (11748680_a_at) / RFU FAM212B (11763350_a_at) / Fold change /veh FAM212B (11763350_a_at) / RFU PLEKHG5 (11743358_a_at) / Fold change /veh PLEKHG5 (11743358_a_at) / RFU ZSCAN30 (11745921_a_at) / Fold change /veh ZSCAN30 (11745921_a_at) / RFU CMKLR1 (11741424_a_at) / Fold change /veh CMKLR1 (11741424_a_at) / RFU LOC101060620 /// MAPK8IP1 (11723275_at) / Fold change /veh LOC101060620 /// MAPK8IP1 (11723275_at) / RFU SPTSSB (11747773_x_at) / Fold change /veh SPTSSB (11747773_x_at) / RFU PRSS12 (11739890_at) / Fold change /veh PRSS12 (11739890_at) / RFU BIN1 (11741810_x_at) / Fold change /veh BIN1 (11741810_x_at) / RFU WNT11 (11732464_a_at) / Fold change /veh WNT11 (11732464_a_at) / RFU C10orf10 (11716521_a_at) / Fold change /veh C10orf10 (11716521_a_at) / RFU C5orf56 (11738089_at) / Fold change /veh C5orf56 (11738089_at) / RFU CYB561 (11721691_x_at) / Fold change /veh CYB561 (11721691_x_at) / RFU ANKRD19P (11752326_a_at) / Fold change /veh ANKRD19P (11752326_a_at) / RFU OR2T12 /// OR2T33 /// OR2T8 (11738714_s_at) / Fold change /veh OR2T12 /// OR2T33 /// OR2T8 (11738714_s_at) / RFU VCAN (11748164_a_at) / Fold change /veh VCAN (11748164_a_at) / RFU JSRP1 (11732532_at) / Fold change /veh JSRP1 (11732532_at) / RFU KRTAP10-11 (11738290_x_at) / Fold change /veh KRTAP10-11 (11738290_x_at) / RFU MYO3A (11730013_a_at) / Fold change /veh MYO3A (11730013_a_at) / RFU EBF3 (11725865_a_at) / Fold change /veh EBF3 (11725865_a_at) / RFU CAMK2N1 (11719241_x_at) / Fold change /veh CAMK2N1 (11719241_x_at) / RFU C5orf56 (11738088_a_at) / Fold change /veh C5orf56 (11738088_a_at) / RFU OLFML3 (11715873_a_at) / Fold change /veh OLFML3 (11715873_a_at) / RFU LOC100653217 /// NTM (11731650_a_at) / Fold change /veh LOC100653217 /// NTM (11731650_a_at) / RFU MAPK11 (11762145_a_at) / Fold change /veh MAPK11 (11762145_a_at) / RFU FIZ1 (11724087_x_at) / Fold change /veh FIZ1 (11724087_x_at) / RFU OASL (11726364_x_at) / Fold change /veh OASL (11726364_x_at) / RFU SOX15 (11748057_x_at) / Fold change /veh SOX15 (11748057_x_at) / RFU CD79A (11719716_a_at) / Fold change /veh CD79A (11719716_a_at) / RFU HIST1H1D (11736915_at) / Fold change /veh HIST1H1D (11736915_at) / RFU CASKIN2 (11723855_a_at) / Fold change /veh CASKIN2 (11723855_a_at) / RFU LOC730098 (11760151_x_at) / Fold change /veh LOC730098 (11760151_x_at) / RFU OR4N2 (11742367_at) / Fold change /veh OR4N2 (11742367_at) / RFU PRRT2 (11749266_a_at) / Fold change /veh PRRT2 (11749266_a_at) / RFU SNX32 (11753110_a_at) / Fold change /veh SNX32 (11753110_a_at) / RFU CDHR5 (11726645_a_at) / Fold change /veh CDHR5 (11726645_a_at) / RFU RCAN1 (11760418_a_at) / Fold change /veh RCAN1 (11760418_a_at) / RFU FAM167A (11723789_a_at) / Fold change /veh FAM167A (11723789_a_at) / RFU FAM26E (11764081_at) / Fold change /veh FAM26E (11764081_at) / RFU ISYNA1 (11749810_s_at) / Fold change /veh ISYNA1 (11749810_s_at) / RFU ACY1 (11761880_at) / Fold change /veh ACY1 (11761880_at) / RFU 11764098_at / Fold change /veh 11764098_at / RFU SAMD14 (11745864_x_at) / Fold change /veh SAMD14 (11745864_x_at) / RFU NPB (11741838_a_at) / Fold change /veh NPB (11741838_a_at) / RFU TMPRSS6 (11731388_a_at) / Fold change /veh TMPRSS6 (11731388_a_at) / RFU KRTAP10-2 (11738614_at) / Fold change /veh KRTAP10-2 (11738614_at) / RFU ARHGAP8 /// PRR5-ARHGAP8 (11727945_x_at) / Fold change /veh ARHGAP8 /// PRR5-ARHGAP8 (11727945_x_at) / RFU KRTAP5-7 /// NADSYN1 (11734609_at) / Fold change /veh KRTAP5-7 /// NADSYN1 (11734609_at) / RFU RASL12 (11751679_a_at) / Fold change /veh RASL12 (11751679_a_at) / RFU CDKN2B (11736163_a_at) / Fold change /veh CDKN2B (11736163_a_at) / RFU PRF1 (11729649_at) / Fold change /veh PRF1 (11729649_at) / RFU, ZNF638 /// ZNF638-IT1 / Fold change vs veh, ZNF638 /// ZNF638-IT1 / RFU, PANK3 / Fold change vs veh, PANK3 / RFU, SH3YL1 / Fold change vs veh, SH3YL1 / RFU, ZEB2 / Fold change vs veh, ZEB2 / RFU, NRIP1 / Fold change vs veh, NRIP1 / RFU, PTTG1IP / Fold change vs veh, PTTG1IP / RFU, CAPN2 / Fold change vs veh, CAPN2 / RFU, MED14 / Fold change vs veh, MED14 / RFU, SNORA58 / Fold change vs veh, SNORA58 / RFU, C1orf63 / Fold change vs veh, C1orf63 / RFU, LRRFIP1 / Fold change vs veh, LRRFIP1 / RFU, NDUFAF7 / Fold change vs veh, NDUFAF7 / RFU, SLC12A2 / Fold change vs veh, SLC12A2 / RFU, IBTK / Fold change vs veh, IBTK / RFU, ESF1 / Fold change vs veh, ESF1 / Fold change vs veh, TMEM50B / RFU, TAOK1 / Fold change vs veh, TAOK1 / RFU, ACBD3 / Fold change vs veh, ACBD3 / RFU, TMA16 / Fold change vs veh, TMA16 / RFU, RWDD3 / Fold change vs veh, RWDD3 / RFU, BCAT1 / Fold change vs veh, BCAT1 / RFU, EDEM3 / Fold change vs veh, EDEM3 / RFU, TMEM33 / Fold change vs veh, TMEM33 / RFU, WDR75 / Fold change vs veh, WDR75 / RFU, AHCTF1 / Fold change vs veh, AHCTF1 / RFU, TFRC / Fold change vs veh, TFRC / RFU, ZDHHC17 / Fold change vs veh, ZDHHC17 / RFU, NOM1 / Fold change vs veh, NOM1 / RFU, ARL8B / Fold change vs veh, ARL8B / RFU, ZBTB11 / Fold change vs veh, ZBTB11 / RFU, TAMM41 / Fold change vs veh, TAMM41 / RFU, KIAA1704 /// LOC100996395 / Fold change vs veh, KIAA1704 /// LOC100996395 / RFU, ING1 / Fold change vs veh, ING1 / RFU, TRMT61B / Fold change vs veh, TRMT61B / RFU, FUBP3 / Fold change vs veh, FUBP3 / RFU, TP53 / Fold change vs veh, TP53 / RFU, TNKS2 / Fold change vs veh, TNKS2 / RFU, ZFP14 / Fold change vs veh, ZFP14 / RFU, ACTR2 / Fold change vs veh, ACTR2 / RFU, PPP3R1 / Fold change vs veh, PPP3R1 / RFU, PIK3R1 / Fold change vs veh, PIK3R1 / RFU, HNRNPA1 / Fold change vs veh, HNRNPA1 / RFU, RNF170 / Fold change vs veh, RNF170 / RFU, ZNF28 / Fold change vs veh, ZNF28 / RFU, RNGTT / Fold change vs veh, RNGTT / RFU, OGT / Fold change vs veh, OGT / RFU, BRD1 / Fold change vs veh, BRD1 / RFU, MARS / Fold change vs veh, MARS / RFU, ZNF655 / Fold change vs veh, ZNF655 / RFU, FAHD1 / Fold change vs veh, FAHD1 / RFU, BDP1 / Fold change vs veh, BDP1 / RFU, LRRCC1 / Fold change vs veh, LRRCC1 / RFU, ARID1A / Fold change vs veh, ARID1A / RFU, ZNF146 / Fold change vs veh, ZNF146 / RFU, ZNF330 / Fold change vs veh, ZNF330 / RFU, GPN3 / Fold change vs veh, GPN3 / RFU, C9orf123 / Fold change vs veh, C9orf123 / RFU, N4BP2L2 / Fold change vs veh, N4BP2L2 / RFU, ARFIP1 / Fold change vs veh, ARFIP1 / RFU, FAM179B / Fold change vs veh, FAM179B / RFU, BCL10 / Fold change vs veh, BCL10 / RFU, UHRF1BP1L / Fold change vs veh, UHRF1BP1L / RFU, BET1 / Fold change vs veh, BET1 / RFU, CNOT2 / Fold change vs veh, CNOT2 / RFU, ZNF268 / Fold change vs veh, ZNF268 / Fold change vs veh, ZNF507 / RFU, DGCR2 / Fold change vs veh, DGCR2 / RFU, WDSUB1 / Fold change vs veh, WDSUB1 / Fold change vs veh, HSP90B1 /// MIR3652 / RFU, ADSS / Fold change vs veh, ADSS / RFU, GK / Fold change vs veh, GK / RFU, ZNF148 / Fold change vs veh, ZNF148 / RFU, TAF9 / Fold change vs veh, TAF9 / RFU, SLC1A5 / Fold change vs veh, SLC1A5 / RFU, SLMO2 / Fold change vs veh, SLMO2 / RFU, ABCC4 / Fold change vs veh, ABCC4 / RFU, LOC101060439 /// RAP1B / Fold change vs veh, LOC101060439 /// RAP1B / RFU, RFX7 / Fold change vs veh, RFX7 / RFU, GTPBP10 / Fold change vs veh, GTPBP10 / RFU, CNEP1R1 / Fold change vs veh, CNEP1R1 / RFU, BIVM-ERCC5 /// ERCC5 / Fold change vs veh, BIVM-ERCC5 /// ERCC5 / RFU, ILF3 / Fold change vs veh, ILF3 / RFU 11762660_at / Fold change /veh 11762660_at / RFU VCAN (11757783_s_at) / Fold change /veh VCAN (11757783_s_at) / RFU DDX43 (11728927_at) / Fold change /veh DDX43 (11728927_at) / RFU KRT8 (11758188_x_at) / Fold change /veh KRT8 (11758188_x_at) / RFU NKD1 (11759106_at) / Fold change /veh NKD1 (11759106_at) / RFU SRD5A1 (11742802_a_at) / Fold change /veh SRD5A1 (11742802_a_at) / RFU TPSAB1 /// TPSB2 (11721975_s_at) / Fold change /veh TPSAB1 /// TPSB2 (11721975_s_at) / RFU GSTM3 (11746129_a_at) / Fold change /veh GSTM3 (11746129_a_at) / RFU IL23R (11737362_x_at) / Fold change /veh IL23R (11737362_x_at) / RFU TMEM51 (11727254_a_at) / Fold change /veh TMEM51 (11727254_a_at) / RFU PIWIL2 (11732686_x_at) / Fold change /veh PIWIL2 (11732686_x_at) / RFU ORM1 (11744905_x_at) / Fold change /veh ORM1 (11744905_x_at) / RFU CCDC152 (11743942_at) / Fold change /veh CCDC152 (11743942_at) / RFU ECM1 (11717891_a_at) / Fold change /veh ECM1 (11717891_a_at) / RFU IL23R (11748794_a_at) / Fold change /veh IL23R (11748794_a_at) / RFU TNFAIP8L3 (11732012_x_at) / Fold change /veh TNFAIP8L3 (11732012_x_at) / RFU MBOAT4 (11741988_at) / Fold change /veh MBOAT4 (11741988_at) / RFU 11764193_at / Fold change /veh 11764193_at / RFU TMEM53 (11763286_at) / Fold change /veh TMEM53 (11763286_at) / RFU MAGEB2 (11727129_at) / Fold change /veh MAGEB2 (11727129_at) / RFU TMEM200A (11744735_a_at) / Fold change /veh TMEM200A (11744735_a_at) / RFU CCDC152 (11751479_a_at) / Fold change /veh CCDC152 (11751479_a_at) / RFU FAM211A (11726209_a_at) / Fold change /veh FAM211A (11726209_a_at) / RFU RGS16 (11746705_a_at) / Fold change /veh RGS16 (11746705_a_at) / RFU VCAN (11755009_s_at) / Fold change /veh VCAN (11755009_s_at) / RFU RHOB (11743442_s_at) / Fold change /veh RHOB (11743442_s_at) / RFU RGS16 (11720943_a_at) / Fold change /veh RGS16 (11720943_a_at) / RFU RGS16 (11720944_at) / Fold change /veh RGS16 (11720944_at) / RFU, VPS4B / Fold change vs veh, VPS4B / RFU, CREB1 / Fold change vs veh, CREB1 / RFU, DNAJC13 / Fold change vs veh, DNAJC13 / RFU, GNAQ / Fold change vs veh, GNAQ / RFU, CDK5R1 / Fold change vs veh, CDK5R1 / RFU, ZRANB3 / Fold change vs veh, ZRANB3 / RFU, CUL4A / Fold change vs veh, CUL4A / RFU, CCNY / Fold change vs veh, CCNY / RFU, UFL1 / Fold change vs veh, UFL1 / RFU, COG3 / Fold change vs veh, COG3 / RFU, DIAPH2 / Fold change vs veh, DIAPH2 / RFU, SKA2 / Fold change vs veh, SKA2 / RFU, AFF3 / Fold change vs veh, AFF3 / RFU, LMF1 / Fold change vs veh, LMF1 / RFU, IPO11 / Fold change vs veh, IPO11 / RFU, DFFB / Fold change vs veh, DFFB / RFU, FOXP1 / Fold change vs veh, FOXP1 / RFU, CARD8 / Fold change vs veh, CARD8 / RFU, STRN3 / Fold change vs veh, STRN3 / RFU, ADK / Fold change vs veh, ADK / RFU, RASSF2 / Fold change vs veh, RASSF2 / RFU, WIPF1 / Fold change vs veh, WIPF1 / RFU, LARP1B / Fold change vs veh, LARP1B / RFU, RASA1 / Fold change vs veh, RASA1 / RFU, RB1 / Fold change vs veh, RB1 / RFU, PPFIA1 / Fold change vs veh, PPFIA1 / RFU, MAT2A / Fold change vs veh, MAT2A / RFU, CCT5 / Fold change vs veh, CCT5 / RFU, WDR92 / Fold change vs veh, WDR92 / RFU, CUX1 / Fold change vs veh, CUX1 / RFU, TTC7A / Fold change vs veh, TTC7A / RFU, TMEM135 / Fold change vs veh, TMEM135 / RFU, DEPTOR / Fold change vs veh, DEPTOR / RFU, CPM / Fold change vs veh, CPM / RFU, DNAJB6 / Fold change vs veh, DNAJB6 / RFU, CACNA2D3 / Fold change vs veh, CACNA2D3 / RFU, DTX4 / Fold change vs veh, DTX4 / RFU, TFCP2 / Fold change vs veh, TFCP2 / RFU, GMCL1 /// GMCL1P1 / Fold change vs veh, GMCL1 /// GMCL1P1 / RFU, AEBP2 / Fold change vs veh, AEBP2 / RFU, SNHG1 /// SNORD22 /// SNORD25 /// SNORD26 /// SNORD27 /// SNORD28 /// SNORD29 /// SNORD31 / Fold change vs veh, SNHG1 /// SNORD22 /// SNORD25 /// SNORD26 /// SNORD27 /// SNORD28 /// SNORD29 /// SNORD31 / Fold change (Aza/veh), C12orf56 (ProbeSet 11735607_a_at) / Fold change (ACY-1035/veh), C12orf56 (ProbeSet 11735607_a_at) / Fold change (Aza/veh), FGFR1OP (ProbeSet 11751329_s_at) / Fold change (ACY-1035/veh), FGFR1OP (ProbeSet 11751329_s_at) / Fold change (Aza/veh), VPS36 (ProbeSet 11739960_a_at) / Fold change (ACY-1035/veh), VPS36 (ProbeSet 11739960_a_at) / RFU SYPL1 (11715823_x_at) / Fold change /veh SYPL1 (11715823_x_at) / RFU IGFBP7 (11715501_s_at) / Fold change /veh IGFBP7 (11715501_s_at) / RFU REEP3 (11722064_at) / Fold change /veh REEP3 (11722064_at) / RFU IGLL1 (11728026_x_at) / Fold change /veh IGLL1 (11728026_x_at): dose or concentration left out as unconfirmed
# Details: ProbeSet 11743929_at; LIST B
structure (smiles),measurement,value
Nc1ccc(-c2cccs2)cc1NC(=O)c1ccc2c(c1)cc(C1CC1)n2CCN1CCOCC1 [ACY-1035],"RFU, UHRF1BP1L",242.75 RFU
